Assay results reported in paper PMC8122671, “New Succinimides with Potent Anticancer Activity: Synthesis, Activation of Stress Signaling Pathways and Characterization of Apoptosis in Leukemia and Cervical Cancer Cells” (International Journal of Molecular Sciences, 2021).

Test: Lipophilicity (logkw) by reversed-phase chromatography (RP-HPLC)
Type: physicochemical
Conditions: for logkw (Experimental): extrapolated to pure water; for logkw (Table S2): intercept of logk vs methanol fraction, n = 4
Description: The main goal of the synthetic part was the synthesis of new derivatives of dicarboximides with decreased lipophilicity in comparison to the lead compounds, i.e., Ia–Ie and II. To reduce the lipophilicity of the new dicarboximides, a hydroxyalkyl chain connected with an aliphatic amine was introduced to the imides (Scheme 1). At the same time, the imide scaffold in derivatives from group 2 and 3 was the same as in lead compounds Ia–Ie and II, respectively (Figure 1). The structure of the imide was changed in derivatives 1b–1g. The lipophilicity of new derivatives was calculated using the Osiris Property Explorer program. For some compounds, lipophilicity was determined experimentally by a reversed-phase chromatography (detailed description is given in Materials and Methods and in the Supplementary Data, Table S2). Table 1 summarizes the calculated (clogP) and experimental (logkw) parameters of the lipophilicity of new derivatives.
The reversed-phase high-performance liquid chromatography (RP-HPLC) analysis was performed on a Merck–Hitachi LaChrom Elite System (Merck, Darmstadt, Germany) with diode array detector L-2455, thermostat L-2300, pump L-2130, and autosampler L-2200 and with the Waters XTerra MS RP-18 (3.5 μm, 150 × 4.6 mm) chromatographic column (Waters, Milford, MA, USA) as the stationary phase. The mobile phase consisted of methanol, water, and 0.1% (v/v) formic acid and was degassed by the use of the built-in membrane degasser. The methanol gradient grade for HPLC was purchased from Merck (Merck, Darmstadt, Germany) and formic acid from Polish Reagents (Polish Reagents, Gliwice, Poland); double-distilled water was used. Then, 5 μL of methanolic solutions (0.1%; m/v) of selected samples were applied to the chromatographic column by the use of an autosampler Hitachi L-2200 (LaChrom Elite, Hitachi-Merck, Darmstadt, Germany). The analysis was performed with the flow rate of 0.7 mL min^−1 in isocratic mode using various concentrations of organic modifier (methanol) in binary polar mobile phases; percentages of methanol in water were 45–70% (%, v/v) and changed by 5% per step. Chromatograms were detected at 254 nm and the temperature of the column was 25 °C. All experiments were repeated in triplicate, and the final results were taken to be the arithmetic means. Dead time was measured by the use of uracil (Calbiochem. Merck, Darmstadt, Germany). Statistical and regression analyses were performed using Statistica (ver. 13.3 for Windows). The chromatographic lipophilicity parameters ( logkW ) for selected samples were obtained by the extrapolation of the retention parameter logk to pure water, according to Equation (1):(1) logk=logkw−S·ϕ; where logkW is the value of the retention factor of a substance in pure water, S is the slope of the regression curve, and ϕ is the concentration of the organic modifier. The values of logk were calculated based on the raw HPLC data using the formula (2):(2) logk=logtR−t0/t0; where tR is the retention time and t0 is the dead retention time (determined for uracil).
The chromatographic lipophilicity parameters (logkௐ ) for selected samples were ob‐ tained by the extrapolation of the retention parame te r logk to pure water, according to […]
where logkௐ is the value of the retention factor of a substance in pure water, S is the slope of the regression curve, and φ is the concentration of the organic modifier. The values of logk were ca lcula ted based on the raw HPLC data using the formula: […]
logk ൌ log ሺ௧ೃ ି ௧బ௧బ ሻ (2) where tோ is the retention time and t଴ is the dead retention time (determined for ura‐ cil). The goodness of fit of the equation (1) to the experimental data was classified accord‐ ing to Jaffe (Jaffe, H. H. A Reexamination of the Hammet Equation. Chem. Rev. 1953, 53, In our RP‐HPLC experiments, the goodness of fit of the equation to the experi‐ mental data are excellent in most ca ses (r > 0.99). The F statistic val ues are, in all cases, […]

| logkw (Experimental) | logkw (Table S2) | Structure (SMILES) |
| --- | --- | --- |
| 4.74 | 4.7442 | CCC12C(=O)C(CC)(C(c3ccccc3)=C1c1ccccc1)C1C(=O)N(CC(O)CNC(C)(C)C)C(=O)C12 (centres unmarked) [2c, 4-[3-(tert-butylamino)-2-hydroxypropyl]-1,7-diethyl-8,9-diphenyl-4-azatricyclo [5.2.1.0^2,6]dec-8-ene-3,5,10-trione] |
| 6.06 | 6.0611 | CC(C)(C)NCC(O)CN1C(=O)C2C(C1=O)C1(c3ccccc3)CC2(c2ccccc2)C(c2ccccc2)=C1c1ccccc1 (centres unmarked) [3c, 4-[3-(tert-butylamino)-2-hydroxypropyl]-1,7,8,9-tetraphenyl-4-azatricyclo[5.2.1.0^2,6]dec-8-ene-3,5-dione] |
| 5.10 | 5.1042 | CCN(CC)CC(O)CN1C(=O)C2C(C1=O)C1(CC)C(=O)C2(CC)C(c2ccccc2)=C1c1ccccc1 (centres unmarked) [2d, 4-[3-(diethylamino)-2-hydroxypropyl]-1,7-diethyl-8,9-diphenyl-4-azatricyclo [5.2.1.0^2,6]dec-8-ene-3,5,10-trione] |
| 6.28 | 6.2845 | CCN(CC)CC(O)CN1C(=O)C2C(C1=O)C1(c3ccccc3)CC2(c2ccccc2)C(c2ccccc2)=C1c1ccccc1 (centres unmarked) [3d, 4-[3-(diethylamino)-2-hydroxypropyl]-1,7,8,9-tetraphenyl-4-azatricyclo[5.2.1.0^2,6]dec-8-ene-3,5-dione] |
